Key:
[1] = cited from earlier work
[2] = test system: insulin secretion; experiment: Alternating bolus injections of GLP-1 and exendin-4 via left atrial catheter in anesthetized dogs; conditions: after normalization of hyperglycemia and in euglycemic state
Protocol: GLP-1(7-36) amide was given at time 0 (0.1 nmol) and at 40 min (1 nmol).

Compound | meal-related increases in blood glucose concentration and plasma insulin and glucagon ([1]; normal subjects, infusion) | lowering of the insulin required ([1]; patients with IDDM) | reduction of the requirement for insulin ([1]; patients with NIDDM) [fold] | hypoglycemia [2]
glucagon-like insulinotropic peptide [GLIP] | significantly lowered | one half | 8 | 
CC[C@H](C)[C@H](NC(=O)[C@H](Cc1ccccc1)NC(=O)[C@H](CCC(=O)O)NC(=O)[C@H](CCCCN)NC(=O)[C@H](C)NC(=O)[C@H](C)NC(=O)[C@H](CCC(N)=O)NC(=O)CNC(=O)[C@H](CCC(=O)O)NC(=O)[C@H](CC(C)C)NC(=O)[C@H](Cc1ccc(O)cc1)NC(=O)[C@H](CO)NC(=O)[C@H](CO)NC(=O)[C@@H](NC(=O)[C@H](CC(=O)O)NC(=O)[C@H](CO)NC(=O)[C@@H](NC(=O)[C@H](Cc1ccccc1)NC(=O)[C@@H](NC(=O)CNC(=O)[C@H](CCC(=O)O)NC(=O)[C@H](C)NC(=O)[C@@H](N)Cc1c[nH]cn1)[C@@H](C)O)[C@@H](C)O)C(C)C)C(=O)N[C@@H](C)C(=O)N[C@@H](Cc1c[nH]c2ccccc12)C(=O)N[C@@H](CC(C)C)C(=O)N[C@H](C(=O)N[C@@H](CCCCN)C(=O)NCC(=O)N[C@@H](CCCNC(=N)N)C(N)=O)C(C)C [GLP-1, glucagon-like peptide-1] |  |  |  | hypoglycemia does not occur
